Data: patent US10597388B2, “Pyridazinone herbicides” (FMC CORPORATION, priority 2014, dated 2020)

Assays:
Assay in all cases: Test D controlled growth environment herbicide test, pre- and postemergence
Type in all cases: in vivo
[1] = system: Russian thistle (Salsola kali)
Excerpt: (§1) Seeds of plant species selected from bluegrass (annual bluegrass, Poa annua), blackgrass (Alopecurus myosuroides), Canada thistle (Cirsium arvense), canarygrass (Phalaris minor), chickweed (common chickweed, Stellaria media), geranium, cutleaf (cutleaf geranium, Geranium dissectum), galium (catchweed bedstraw, Galium aparine), bromegrass, downy (downy bromegrass, Bromus tectorum), field poppy (Papaver rhoeas), field violet (Viola arvensis), foxtail, green (green foxtail, Setaria viridis), deadnettle (henbit deadnettle, Lamium amplexicaule), ryegrass, Italian (Italian ryegrass, Lolium multiflorum), kochia (Kochia scoparia), lambsquarters (Chenopodium album), oilseed rape (Brassica napus), pigweed (Amaranthus retroflexus), chamomile (scentless chamomile, Matricaria inodora), Russian thistle (Salsola kali), speedwell (bird's-eye speedwell, Veronica persica), barley, spring (spring barley, Hordeum vulgare), wheat, spring (spring wheat, Triticum aestivum), buckwheat, wild (wild buckwheat, Polygonum convolvulus), mustard, wild (wild mustard, Sinapis arvensis), oat, wild (wild oat, Avena fatua), radish, wild (wild radish, Raphanus raphanistrum), windgrass (Apera spica-venti), barley, winter (winter barley, Hordeum vulgare), and wheat, winter (winter wheat, Triticum aestivum) were planted into a silt loam soil and treated preemergence with test chemicals formulated in a non-phytotoxic solvent mixture which included a surfactant.
(§2) At the same time, these species were planted in pots containing Redi-Earth® planting medium (Scotts Company, 14111 Scottslawn Road, Marysville, Ohio 43041) comprising spaghnum peat moss, vermiculite, wetting agent and starter nutrients and treated with postemergence applications of the test chemicals formulated in the same manner. Plants ranged in height from 2 to 18 cm (1- to 4-leaf stage). Treated plants and controls were maintained in a controlled growth environment for 14 to 21 d after which time all species were compared to controls and visually evaluated. Plant response ratings, summarized in Table D, are based on a scale of 0 to 100 where 0 is no effect and 100 is complete control. A dash (-) response means no test result.

[2] = system: barley, winter (winter barley, Hordeum vulgare)
Excerpt: as §1, §2

[3] = system: bromegrass, downy (downy bromegrass, Bromus tectorum)
Excerpt: as §1, §2

[4] = system: chickweed (common chickweed, Stellaria media)
Excerpt: as §1, §2

[5] = system: deadnettle (henbit deadnettle, Lamium amplexicaule)
Excerpt: as §1, §2

[6] = system: field poppy (Papaver rhoeas)
Excerpt: as §1, §2

[7] = system: galium (catchweed bedstraw, Galium aparine)
Excerpt: as §1, §2

kochia (Kochia scoparia) = system: kochia (Kochia scoparia)
Excerpt: as §1, §2

[8] = system: lambsquarters (Chenopodium album)
Excerpt: as §1, §2

[9] = system: mustard, wild (wild mustard, Sinapis arvensis)
Excerpt: as §1, §2

[10] = system: speedwell (bird's-eye speedwell, Veronica persica)
Excerpt: as §1, §2

[11] = system: wheat, winter (winter wheat, Triticum aestivum)
Excerpt: as §1, §2

[12] = system: windgrass (Apera spica-venti)
Excerpt: as §1, §2

[13] = Postemergence, 31 g ai/ha, scale 0 to 100 (0 no effect, 100 complete control)
[14] = Postemergence, 125 g ai/ha, visual rating on scale 0 (no effect) to 100 (complete control), 14 to 21 d
[15] = Postemergence, 250 g ai/ha, scale 0 to 100 (0 no effect, 100 complete control)
[16] = Preemergence, 125 g ai/ha, scale 0 to 100 (0 no effect, 100 complete control)
[17] = Preemergence, 250 g ai/ha, scale 0 to 100 (0 no effect, 100 complete control)
[18] = postemergence, 62 g ai/ha, scale 0 to 100, 0 no effect, 100 complete control
[19] = Preemergence, 62 g ai/ha, scale 0 to 100 (0 no effect, 100 complete control)

`CC(=O)Oc1c(Br)nn(C)c(=O)c1-c1c(C)ccc2ccccc12` [Compound 129] was tested, and the “Russian Thistle plant response rating” value [1, 13] was 70, the “Plant response rating, Russian Thistle” value [1, 14] was 85 and the “Plant response rating, Russian Thistle” value [1, 15] was 90. The “Plant response rating (scale of 0 to 100), Russian Thistle” value ([1]; Preemergence, 31 g ai/ha) was 10, the “Plant response rating (scale of 0 to 100), Russian Thistle” value ([1]; Preemergence, 62 g ai/ha) was 50 and the “Plant response rating, Russian Thistle” value [1, 16] was 100. The “Plant response rating, Russian Thistle” value [1, 17] was 100, the “Plant response rating, Russian Thistle” value [1, 18] was 80 and the “Barley, Winter plant response rating” value [2, 13] was 10. The “Plant response rating, Barley, Winter” value [2, 14] was 30, the “Plant response rating, Barley, Winter” value [2, 15] was 35 and the “Plant response rating (scale of 0 to 100), Barley, Winter” value ([2]; Preemergence, 31 g ai/ha) was 0. For the same compound, the “Plant response rating, Barley, Winter” value [2, 19] was 0, the “Plant response rating, Barley, Winter” value [2, 16] was 0 and the “Plant response rating, Barley, Winter” value [2, 17] was 10. For the same compound, the “Plant response rating, Barley, Winter” value [2, 18] was 20, the “Bromegrass, Downy plant response rating” value [3, 13] was 25 and the “Plant response rating, Bromegrass, Downy” value [3, 14] was 65. For the same compound, the “Plant response rating, Bromegrass, Downy” value [3, 15] was 80, the “Plant response rating (scale of 0 to 100), Bromegrass, Downy” value ([3]; Preemergence, 31 g ai/ha) was 15 and the “Plant response rating, Bromegrass, Downy” value [3, 19] was 15. The “Plant response rating, Bromegrass, Downy” value [3, 16] was 65, the “Plant response rating, Bromegrass, Downy” value [3, 17] was 80 and the “Plant response rating, Bromegrass, Downy” value [3, 18] was 40. For the same compound, the “Chickweed plant response rating” value [4, 13] was 100, the “Plant response rating, Chickweed” value [4, 14] was 100 and the “Plant response rating, Chickweed” value [4, 15] was 100. The “Plant response rating (scale of 0 to 100), Chickweed” value ([4]; Preemergence, 31 g ai/ha) was 98, the “Plant response rating (scale of 0 to 100), Chickweed” value ([4]; Preemergence, 62 g ai/ha) was 100 and the “Plant response rating, Chickweed” value [4, 16] was 98. The “Plant response rating, Chickweed” value [4, 17] was 100, the “Plant response rating, Chickweed” value [4, 18] was 100 and the “Deadnettle plant response rating” value [5, 13] was 35. The “Plant response rating, Deadnettle” value [5, 14] was 70, the “Plant response rating, Deadnettle” value [5, 15] was 95 and the “Plant response rating (scale of 0 to 100), Deadnettle” value ([5]; Preemergence, 31 g ai/ha) was 60. The “Plant response rating (scale of 0 to 100), Deadnettle” value ([5]; Preemergence, 62 g ai/ha) was 75, the “Plant response rating, Deadnettle” value [5, 16] was 75 and the “Plant response rating, Deadnettle” value [5, 17] was 95. For the same compound, the “Plant response rating, Deadnettle” value [5, 18] was 40, the “Field Poppy plant response rating” value [6, 13] was 70 and the “Plant response rating, Field Poppy” value [6, 14] was 80. For the same compound, the “Plant response rating, Field Poppy” value [6, 15] was 98, the “Plant response rating (scale of 0 to 100), Field Poppy” value ([6]; Preemergence, 31 g ai/ha) was 90 and the “Plant response rating (scale of 0 to 100), Field Poppy” value ([6]; Preemergence, 62 g ai/ha) was 98. For the same compound, the “Plant response rating, Field Poppy” value [6, 16] was 100, the “Plant response rating, Field Poppy” value [6, 17] was 100 and the “Plant response rating, Field Poppy” value [6, 18] was 75. The “Galium plant response rating” value [7, 13] was 90, the “Plant response rating, Galium” value [7, 14] was 100 and the “Plant response rating, Galium” value [7, 15] was 100. The “Plant response rating (scale of 0 to 100), Galium” value ([7]; Preemergence, 31 g ai/ha) was 75, the “Plant response rating (scale of 0 to 100), Galium” value ([7]; Preemergence, 62 g ai/ha) was 90 and the “Plant response rating, Galium” value [7, 16] was 90. For the same compound, the “Plant response rating, Galium” value [7, 17] was 95, the “Plant response rating, Galium” value [7, 18] was 100 and the “Kochia plant response rating” value (kochia (Kochia scoparia); [13]) was 60. The “Plant response rating, Kochia” value (kochia (Kochia scoparia); [14]) was 80, the “Plant response rating, Kochia” value (kochia (Kochia scoparia); [15]) was 85 and the “Plant response rating (scale of 0 to 100), Kochia” value (kochia (Kochia scoparia); Preemergence, 31 g ai/ha) was 5. The “Plant response rating (scale of 0 to 100), Kochia” value (kochia (Kochia scoparia); Preemergence, 62 g ai/ha) was 55, the “Plant response rating, Kochia” value (kochia (Kochia scoparia); [16]) was 85 and the “Plant response rating, Kochia” value (kochia (Kochia scoparia); [17]) was 100. The “Plant response rating, Kochia” value (kochia (Kochia scoparia); [18]) was 70, the “Lambsquarters plant response rating” value [8, 13] was 75 and the “Plant response rating, Lambsquarters” value [8, 14] was 95. The “Plant response rating, Lambsquarters” value [8, 15] was 100, the “Plant response rating (scale of 0 to 100), Lambsquarters” value ([8]; Preemergence, 31 g ai/ha) was 100 and the “Plant response rating (scale of 0 to 100), Lambsquarters” value ([8]; Preemergence, 62 g ai/ha) was 75. For the same compound, the “Plant response rating, Lambsquarters” value [8, 16] was 100, the “Plant response rating, Lambsquarters” value [8, 17] was 100 and the “Plant response rating, Lambsquarters” value [8, 18] was 90. The “Mustard, Wild plant response rating” value [9, 13] was 80, the “Plant response rating, Mustard, Wild” value [9, 14] was 98 and the “Plant response rating, Mustard, Wild” value [9, 15] was 100. The “Plant response rating (scale of 0 to 100), Mustard, Wild” value ([9]; Preemergence, 31 g ai/ha) was 75, the “Plant response rating (scale of 0 to 100), Mustard, Wild” value ([9]; Preemergence, 62 g ai/ha) was 100 and the “Plant response rating, Mustard, Wild” value [9, 16] was 100. The “Plant response rating, Mustard, Wild” value [9, 17] was 100, the “Plant response rating, Mustard, Wild” value [9, 18] was 80 and the “Speedwell plant response rating” value [10, 13] was 35. The “Plant response rating, Speedwell” value [10, 14] was 65, the “Plant response rating, Speedwell” value [10, 15] was 75 and the “Plant response rating (scale of 0 to 100), Speedwell” value ([10]; Preemergence, 31 g ai/ha) was 90. For the same compound, the “Plant response rating (scale of 0 to 100), Speedwell” value ([10]; Preemergence, 62 g ai/ha) was 100, the “Plant response rating, Speedwell” value [10, 16] was 100 and the “Plant response rating, Speedwell” value [10, 17] was 100. For the same compound, the “Plant response rating, Speedwell” value [10, 18] was 60, the “Wheat, Winter plant response rating” value [11, 13] was 30 and the “Plant response rating, Wheat, Winter” value [11, 14] was 40. For the same compound, the “Plant response rating, Wheat, Winter” value [11, 15] was 55, the “Plant response rating (scale of 0 to 100), Wheat, Winter” value ([11]; Preemergence, 31 g ai/ha) was 10 and the “Plant response rating (scale of 0 to 100), Wheat, Winter” value ([11]; Preemergence, 62 g ai/ha) was 35. For the same compound, the “Plant response rating, Wheat, Winter” value [11, 16] was 45, the “Plant response rating, Wheat, Winter” value [11, 17] was 60 and the “Plant response rating, Wheat, Winter” value [11, 18] was 35. For the same compound, the “Windgrass plant response rating” value [12, 13] was 20, the “Plant response rating, Windgrass” value [12, 14] was 55 and the “Plant response rating, Windgrass” value [12, 15] was 90. For the same compound, the “Plant response rating (scale of 0 to 100), Windgrass” value ([12]; Preemergence, 31 g ai/ha) was 35, the “Plant response rating (scale of 0 to 100), Windgrass” value ([12]; Preemergence, 62 g ai/ha) was 45 and the “Plant response rating, Windgrass” value [12, 16] was 75. The “Plant response rating, Windgrass” value [12, 17] was 80 and the “Plant response rating, Windgrass” value [12, 18] was 35.
